Data published in patent US9458110B2, “Phenylpyrazole derivatives as potent ROCK1 and ROCK2 inhibitors” (BRISTOL-MYERS SQUIBB COMPANY, priority 2013, dated 2016).

Columns and labels:
[1] = target: ROCK2 (Homo sapiens (Human), UniProt O75116); assay: ROCK assay (Caliper LABCHIP peptide phosphorylation), ROCK2; assay type: biochemical; settings: 5 μM ATP, 1.5 μM peptide substrate;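 further: reaction stopped with EDTA, then phosphorylated and unphosphorylated peptide resolved by microfluidic electrophoresis, kinase inhibition computed at each compound concentration in dose-response series, DMSO under 2%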
[2] = target: ROCK1 (Homo sapiens (Human), UniProt Q13464); assay: ROCK assay (Caliper LABCHIP peptide phosphorylation), ROCK1; assay type: biochemical; settings: 5 μM ATP, 1.5 μM peptide substrate;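 further: Read-out is separation of phosphorylated from unphosphorylated peptide, with kinase activity inhibition computed at every concentration of a dose-response series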
ROCK1, sequence (Q13464 whole entry, species assumed): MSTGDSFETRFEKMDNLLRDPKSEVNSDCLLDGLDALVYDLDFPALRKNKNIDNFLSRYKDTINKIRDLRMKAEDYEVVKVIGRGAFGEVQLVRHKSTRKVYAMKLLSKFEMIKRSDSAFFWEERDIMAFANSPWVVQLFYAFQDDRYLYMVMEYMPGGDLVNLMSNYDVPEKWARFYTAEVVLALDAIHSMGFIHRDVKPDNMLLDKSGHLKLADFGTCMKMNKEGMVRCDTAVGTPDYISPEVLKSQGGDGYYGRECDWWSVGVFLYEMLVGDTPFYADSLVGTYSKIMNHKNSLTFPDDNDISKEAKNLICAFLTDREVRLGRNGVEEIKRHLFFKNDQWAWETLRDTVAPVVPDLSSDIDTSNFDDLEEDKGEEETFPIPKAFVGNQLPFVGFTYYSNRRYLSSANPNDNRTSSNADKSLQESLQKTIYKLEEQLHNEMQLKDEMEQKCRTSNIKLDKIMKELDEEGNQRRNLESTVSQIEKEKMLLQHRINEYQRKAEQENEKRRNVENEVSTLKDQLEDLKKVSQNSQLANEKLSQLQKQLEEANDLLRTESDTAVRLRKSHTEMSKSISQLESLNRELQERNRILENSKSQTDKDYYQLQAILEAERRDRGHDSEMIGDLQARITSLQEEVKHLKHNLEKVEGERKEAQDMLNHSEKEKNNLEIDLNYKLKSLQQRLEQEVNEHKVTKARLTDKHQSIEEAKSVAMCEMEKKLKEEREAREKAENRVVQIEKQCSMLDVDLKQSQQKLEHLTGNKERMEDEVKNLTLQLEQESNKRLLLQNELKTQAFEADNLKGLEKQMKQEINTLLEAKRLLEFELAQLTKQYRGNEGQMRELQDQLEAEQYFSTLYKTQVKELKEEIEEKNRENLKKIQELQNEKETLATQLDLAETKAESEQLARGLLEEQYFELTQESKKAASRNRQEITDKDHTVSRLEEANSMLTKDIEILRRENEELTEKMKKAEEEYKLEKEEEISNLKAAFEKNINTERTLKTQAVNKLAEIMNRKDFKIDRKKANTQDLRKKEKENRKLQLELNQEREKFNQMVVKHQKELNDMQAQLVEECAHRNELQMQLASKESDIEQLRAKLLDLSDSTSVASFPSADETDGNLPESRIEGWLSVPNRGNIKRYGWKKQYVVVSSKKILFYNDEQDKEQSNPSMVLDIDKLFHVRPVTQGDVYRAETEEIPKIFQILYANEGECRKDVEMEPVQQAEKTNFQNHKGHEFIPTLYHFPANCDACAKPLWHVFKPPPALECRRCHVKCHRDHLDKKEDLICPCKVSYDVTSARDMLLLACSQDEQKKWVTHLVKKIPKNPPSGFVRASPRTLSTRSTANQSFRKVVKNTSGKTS

ROCK2, sequence (O75116 whole entry, species assumed): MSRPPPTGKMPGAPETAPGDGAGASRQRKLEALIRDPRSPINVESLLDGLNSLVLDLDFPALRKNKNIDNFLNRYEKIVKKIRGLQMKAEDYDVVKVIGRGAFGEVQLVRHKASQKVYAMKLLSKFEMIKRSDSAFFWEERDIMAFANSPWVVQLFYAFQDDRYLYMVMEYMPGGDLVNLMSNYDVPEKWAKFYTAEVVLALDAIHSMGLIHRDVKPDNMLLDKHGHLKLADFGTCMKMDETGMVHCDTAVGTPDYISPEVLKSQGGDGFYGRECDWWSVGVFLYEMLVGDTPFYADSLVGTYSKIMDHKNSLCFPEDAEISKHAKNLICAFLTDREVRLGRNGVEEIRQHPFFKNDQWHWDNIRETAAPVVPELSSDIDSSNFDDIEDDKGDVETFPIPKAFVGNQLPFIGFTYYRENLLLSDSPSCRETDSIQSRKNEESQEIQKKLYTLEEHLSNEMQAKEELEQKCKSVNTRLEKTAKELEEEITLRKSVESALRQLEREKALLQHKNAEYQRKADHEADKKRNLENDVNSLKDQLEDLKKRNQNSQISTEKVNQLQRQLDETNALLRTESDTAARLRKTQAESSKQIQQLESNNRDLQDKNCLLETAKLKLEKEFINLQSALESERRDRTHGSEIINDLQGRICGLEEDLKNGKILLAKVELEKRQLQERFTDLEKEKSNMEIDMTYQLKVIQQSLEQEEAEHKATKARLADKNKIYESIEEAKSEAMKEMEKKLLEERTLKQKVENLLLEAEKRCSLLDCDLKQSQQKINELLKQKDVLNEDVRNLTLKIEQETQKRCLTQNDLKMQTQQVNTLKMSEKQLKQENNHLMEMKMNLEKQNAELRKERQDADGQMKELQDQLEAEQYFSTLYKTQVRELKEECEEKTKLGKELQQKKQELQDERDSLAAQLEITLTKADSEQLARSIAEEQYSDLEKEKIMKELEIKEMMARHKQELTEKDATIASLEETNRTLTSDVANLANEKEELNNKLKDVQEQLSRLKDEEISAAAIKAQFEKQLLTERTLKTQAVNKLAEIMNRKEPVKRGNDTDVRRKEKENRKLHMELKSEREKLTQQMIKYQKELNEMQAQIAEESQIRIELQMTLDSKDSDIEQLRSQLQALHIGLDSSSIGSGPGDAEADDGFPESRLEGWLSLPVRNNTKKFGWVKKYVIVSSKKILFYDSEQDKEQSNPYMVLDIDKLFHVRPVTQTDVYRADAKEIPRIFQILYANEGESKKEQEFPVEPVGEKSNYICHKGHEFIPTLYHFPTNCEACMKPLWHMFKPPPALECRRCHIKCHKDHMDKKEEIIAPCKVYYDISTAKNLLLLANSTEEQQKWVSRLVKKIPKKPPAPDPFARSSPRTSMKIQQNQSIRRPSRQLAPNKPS

Row | Compound | IC50 [1] [nM] | IC50 [2] [nM]
1 | CCNC(=O)c1cccc(CNC(=O)c2ccc(-c3cn[nH]c3)c(C)c2)c1 [Example 240, N-{[3-(ethylcarbamoyl)phenyl]methyl}-3-methyl-4-(1H-pyrazol-4-yl)benzamide] | 2.61 | 11.8
2 | COc1cc(C(=O)NCC(O)c2cccc(O)c2)ccc1-c1cn[nH]c1 (stereo not drawn) [Example 131, N-[2-hydroxy-2-(3-hydroxyphenyl)ethyl]-3-methoxy-4-(1H-pyrazol-4-yl)benzamide] | 12.7 | 42
3 | CC(NC(=O)c1ccc(-c2cn[nH]c2)c(C(F)F)c1)c1ccccc1F (single isomer, unassigned) [Example 300, 3-(Difluoromethyl)-N-(1-(2-fluorophenyl)ethyl)-4-(1H-pyrazol-4-yl)benzamide] | 77.1 | 108
4 | C[C@@H](NC(=O)c1ccc(-c2cn[nH]c2)c(OCC(C)(C)O)c1)c1ccccc1 [Example 154, 3-(2-hydroxy-2-methylpropoxy)-N-[(1R)-1-phenylethyl]-4-(1H-pyrazol-4-yl)benzamide] | 452 | 1790
5 | COC(=O)C[C@@H](NC(=O)c1ccc(-c2cn[nH]c2)c(C)c1)c1ccccc1 [Example 155, methyl (3R)-3-{[3-methyl-4-(1H-pyrazol-4-yl)phenyl] formamido}-3-phenyl-propanoate] | 70.2 | 405
6 | COc1cc(-c2cn[nH]c2)ccc1C(=O)NC(C)c1c(F)cccc1F (stereo not drawn) [Example 226, N-[1-(2,6-difluorophenyl)ethyl]-2-methoxy-4-(1H-pyrazol-4-yl)benzamide] | 5.13 | 26.5
7 | COc1cc(C(=O)N[C@H](CNS(C)(=O)=O)c2ccccc2)ccc1-c1cn[nH]c1 [Example 260, N-[(1S)-2-methane-sulfonamido-1-phenylethyl]-3-methoxy-4-(1H-pyrazol-4-yl)benzamide] | 1.9 | 6.62
8 | COc1cc(C(=O)NCc2c(F)ccc(C)c2F)ccc1-c1cn[nH]c1 [Example 80, N-(2,6-difluoro-3-methylbenzyl)-3-methoxy-4-(1H-pyrazol-4-yl)benzamide] | 2.97 | 13.2
9 | COc1cc(C(=O)N[C@@H](Cc2ccc(F)cc2)C(=O)N(C)C)ccc1-c1cn[nH]c1 [Example 119, (2S)-3-(4-fluorophenyl)-2-{[3-methoxy-4-(1H-pyrazol-4-yl)phenyl] formamido}-N,N-dimethyl-propanamide] | 1010 | 2270
10 | COc1cc(-c2cn[nH]c2)ccc1C(=O)NC(C)c1c(F)cccc1F (stereo not drawn) [Example 227, N-[1-(2,6-difluorophenyl)ethyl]-2-methoxy-4-(1H-pyrazol-4-yl)benzamide] | 1200 | > 2000
11 | COc1cc(C(=O)N(C)CCc2ccccc2)ccc1-c1cn[nH]c1 [Example 70, 3-methoxy-N-methyl-N-phenethyl-4-(1H-pyrazol-4-yl)benzamide] | 164 | 379
12 | COC[C@@H](NC(=O)c1ccc(-c2cn[nH]c2)c(OC)c1)c1ccccc1 [Example 157, 3-methoxy-N-[(1S)-2-methoxy-1-phenylethyl]-4-(1H-pyrazol-4-yl)benzamide] | 3.94 | 10.3
13 | COc1cc(C(=O)N[C@H](CO)[C@H](O)c2ccccc2)ccc1-c1cn[nH]c1 [Example 112, N-[(1R,2R)-1,3-dihydroxy-1-phenylpropan-2-yl]-3-methoxy-4-(1H-pyrazol-4-yl)benzamide] | 2.72 | 23.9
14 | COc1cc(C(=O)NCc2ccc(F)c(F)c2)ccc1-c1cn[nH]c1 [Example 79, N-(3,4-difluorobenzyl)-3-methoxy-4-(1H-pyrazol-4-yl)benzamide] | 7.96 | 22.8
15 | COc1cccc([C@@H](C)NC(=O)c2ccc(-c3c(C)n[nH]c3C)cc2OC)c1 [Example 304, 4-(3,5-Dimethyl-1H-pyrazol-4-yl)-2-methoxy-N-[(1R)-1-(3-methoxyphenyl)ethyl]benzamide] | 24.5 | 133
16 | CC(NC(=O)c1ccc(-c2cn[nH]c2)c(C=O)c1)c1ccccc1F (stereo not drawn) [Example 276, N-[1-(2-fluorophenyl)ethyl]-3-formyl-4-(1H-pyrazol-4-yl)benzamide] | 409 | 509
17 | COc1cc(-c2cn[nH]c2)ccc1C(=O)N[C@H](CO)c1c(F)cccc1F [Example 201, N-[(1S)-1-(2,6-difluorophenyl)-2-hydroxyethyl]-2-methoxy-4-(1H-pyrazol-4-yl)benzamide] | 11.5 | 362
18 | COc1cc(C(=O)N[C@@H](Cc2ccccc2)C(N)=O)ccc1-c1cn[nH]c1 [Example 115, (2S)-2-{[3-methoxy-4-(1H-pyrazol-4-yl)phenyl] formamido}-3-phenyl-propanamide] | 14 | 37.4
19 | COc1cc(C(=O)NCc2ccccc2C(C)C)ccc1-c1cn[nH]c1 [Example 267, 3-Methoxy-N-{[2-(propan-2-yl)phenyl]methyl}-4-(1H-pyrazol-4-yl)benzamide] | 104 | 204
20 | COc1cc(C(=O)NCC(c2ccccc2)N2CCNCC2)ccc1-c1cn[nH]c1 (stereo not drawn) [Example 132, 3-methoxy-N-[2-phenyl-2-(piperazin-1-yl)ethyl]-4-(1H-pyrazol-4-yl)benzamide] | 103 | 180
21 | COc1cc(C(=O)NCc2ccc(OCC(C)C)cc2Cl)ccc1-c1cn[nH]c1 [Example 46, N-(2-chloro-4-isobutoxybenzyl)-3-methoxy-4-(1H-pyrazol-4-yl)benzamide] | 786 | 1880
22 | COc1cc(C(=O)NC[C@H](O)c2ccccc2)ccc1-c1cn[nH]c1 [Example 130, N-[(2R)-2-hydroxy-2-phenylethyl]-3-methoxy-4-(1H-pyrazol-4-yl)benzamide] | 33.4 | 53.7
23 | CC(O)c1cc(C(=O)NCc2c(F)cccc2Cl)ccc1-c1cn[nH]c1 (stereo not drawn) [Example 291, N-[(2-chloro-6-fluorophenyl)methyl]-3-(1-hydroxyethyl)-4-(1H-pyrazol-4-yl)benzamide] | 104 | 138
24 | COc1cc(-c2cn[nH]c2)ccc1C(=O)NCc1cccc(S(N)(=O)=O)c1 [Example 230, 2-methoxy-4-(1H-pyrazol-4-yl)-N-[(3-sulfamoyl-phenyl)methyl] benzamide] | 1.86 | 11.2
25 | Cc1cc(C(=O)N[C@H](CC(=O)O)c2ccccc2)ccc1-c1cn[nH]c1 [Example 251, (3R)-3-{[3-Methyl-4-(1H-pyrazol-4-yl)phenyl]formamido}-3-phenylpropanoic acid] | 33.7 | 45.7
26 | CCOc1cc(-c2cn[nH]c2)ccc1C(=O)N[C@H](C)c1cccc(OC)c1 [Example 313, 2-ethoxy-N-[(1R)-1-(3-methoxyphenyl)ethyl]-4-(1H-pyrazol-4-yl)benzamide] | 1.6 | 21.1
27 | COc1cc(C(=O)NC(C)c2c(F)cccc2Cl)ccc1-c1cn[nH]c1 (stereo not drawn) [Example 221, N-[1-(2-chloro-6-fluorophenyl)ethyl]-3-methoxy-4-(1H-pyrazol-4-yl)benzamide] | 3.43 | 16.7

More lines, in order of falling IC50 [1], values ahead:

Row | IC50 [1] [nM] | IC50 [2] [nM] | Compound
28 | 224 | 337 | COc1cc(C(=O)N[C@@H](C)[C@H](O)c2ccccc2)ccc1-c1cn[nH]c1 [Example 40, N-((1R,2S)-1-hydroxy-1-phenylpropan-2-yl)-3-methoxy-4-(1H-pyrazol-4-yl)benzamide]
29 | 183 | 842 | CCC(O)c1cc(C(=O)N[C@H](C)c2ccccc2)ccc1-c1cn[nH]c1 (stereo partly drawn) [Example 284, 3-(1-hydroxypropyl)-N-[(1R)-1-phenylethyl]-4-(1H-pyrazol-4-yl)benzamide]
30 | 60.2 | 85.8 | COc1cc(C(=O)NCc2ccccc2OC(F)(F)F)ccc1-c1cn[nH]c1 [Example 22, 3-methoxy-4-(1H-pyrazol-4-yl)-N-(2-(trifluoro-methoxy)benzyl) benzamide]
31 | 49.7 | 124 | N-(3- chlorobenzyl)- 3-methoxy-4- (1H-pyrazol-4- yl)benzamide [Example 34]
32 | 36 | 55.2 | CCS(=O)(=O)NC[C@@H](NC(=O)c1ccc(-c2cn[nH]c2)c(OC)c1)c1ccccc1 [Example 262, N-[(1S)-2-ethane-sulfonamido-1-phenylethyl]-3-methoxy-4-(1H-pyrazol-4-yl)benzamide]
33 | 31.9 | 94.2 | COc1cc(C(=O)NC(CCN(C)C)c2ccccc2)ccc1-c1cn[nH]c1 (stereo not drawn) [Example 178, N-[3-(dimethylamino)-1-phenylpropyl]-3-methoxy-4-(1H-pyrazol-4-yl)benzamide]
34 | 27.7 | 38.7 | COc1cc(C(=O)NCC(C#N)c2ccccc2)ccc1-c1cn[nH]c1 (stereo not drawn) [Example 118, N-(2-cyano-2-phenylethyl)-3-methoxy-4-(1H-pyrazol-4-yl)benzamide]
35 | 26 | 146 | COc1cc(C(=O)NC2(c3ccccc3)CCC2)ccc1-c1cn[nH]c1 [Example 222, 3-methoxy-N-(1-phenyl-cyclobutyl)-4-(1H-pyrazol-4-yl)benzamide]
36 | 11 | 51.5 | COc1cc(C(=O)N[C@@H](Cc2ccccc2)[C@H](O)CO)ccc1-c1cn[nH]c1 [Example 216, N-[(2S,3S)-3,4-dihydroxy-1-phenylbutan-2-yl]-3-methoxy-4-(1H-pyrazol-4-yl)benzamide]
37 | 4 | 11.4 | C[C@@H](NC(=O)c1ccc(-c2cn[nH]c2)c(OC(F)F)c1)c1ccccc1 [Example 156, 3-(difluoro-methoxy)-N-[(1R)-1-phenylethyl]-4-(1H-pyrazol-4-yl)benzamide]
38 | 3.37 | 16.8 | COCCOc1cc(-c2cn[nH]c2)ccc1C(=O)N[C@H](C)c1cccc(OC)c1 [Example 314, 2-(2-methoxyethoxy)-N-[(1R)-1-(3-methoxyphenyl)ethyl]-4-(1H-pyrazol-4-yl)benzamide]
39 | 0.72 | 10 | COc1cc(C(=O)NCc2cccc(C(N)=O)c2)ccc1-c1cn[nH]c1 [Example 250, N-[(3-carbamoylphenyl)methyl]-3-methoxy-4-(1H-pyrazol-4-yl)benzamide]
